Broadly, the apparent Kd is the concentration giving half-maximal binding under the conditions of the assay.

Assay [1] concerns G4 MYC (DNA, G4) TGAGGGTGGGTAGGGTGGGTAA
As to the kind of experiment: CD titration. The note with it: 100 mM Li+, 10 mM Tris-HCl pH 7.4, 20 °C, 10 µM DNA.

The subject of assay [2] is dsDNA (DNA, duplex) CAATCGGATCGAATTCGATCCGATTG
As to the kind of experiment: fluorescent intercalator displacement. The note with it: 100 mM K+, 10 mM lithium cacodylate pH 7.3, thiazole orange displaced.

The subject of assay [3] is G4 MYC (DNA, G4) TGAGGGTGGGTAGGGTGGGTAA
Description: fluorescent intercalator displacement. The conditions noted are these: 100 mM K+, 10 mM lithium cacodylate pH 7.3, thiazole orange displaced.

The test system of assay [4] is G4 KIT1 (DNA, G4) AGGGAGGGCGCTGGGAGGAGGG
As to the kind of experiment: CD titration. The conditions noted are these: 100 mM Li+; 10 mM Tris-HCl pH 7.4, 20 °C; 10 µM DNA; 405 nm illuminated; G4 induction.

`NCCOc1cc(NC(=O)c2ccc3c(c2)/N=N/c2cc(C4=CCNCC4)ccc2CC3)nc2ccccc12`: the binding entry is given as “yes” in assay [1] (405 nm illuminated, parallel G4 induction); “no” in assay [2] (405 nm illuminated); “yes” in assay [4]. In assay [3] (normalized to trans isomer), this molecule showed a DC50 of 1150 ± 60 nM. Moreover, the “apparent Kd” value in assay [3] (derived from DC50 normalized to trans isomer) was 460 ± 20 nM.
Regarding `NCCOc1cc(NC(=O)c2ccc3c(c2)/N=N/c2cc(-c4ccc5ncccc5c4)ccc2CC3)nc2ccccc12`, the “apparent Kd” value in assay [3] stood at 940 ± 30 nM.
The same measure, in the same setting: the value for `NCCOc1cc(NC(=O)c2ccc3c(c2)/N=N/c2cc(-c4ccc5cccnc5c4)ccc2CC3)nc2ccccc12` was 1000 ± 30 nM.
Consider `NCCOc1cc(NC(=O)c2ccc3c(c2)/N=N/c2cc(C4=CCN(CCNC(=O)CCOCCOCCOCCOCCNC(=O)CCCC[C@@H]5SC[C@@H]6NC(=O)N[C@@H]65)CC4)ccc2CC3)nc2ccccc12`, for which the binding entry in assay [2] (highest 5 µM, 405 nm illuminated) is on record as “no”. Further, in assay [3] (normalized to trans isomer), the DC50 is 1580 ± 50 nM. For the same molecule, in assay [3] (derived from normalized DC50), the “apparent Kd” value came to 630 ± 20 nM.
Turning to `NCCOc1cc(NC(=O)c2ccc3c(c2)/N=N/c2cc(-c4cnc5ccccc5c4)ccc2CC3)nc2ccccc12`, the “apparent Kd” value in assay [3] was found to be 970 ± 60 nM.
On the same count and under the same terms, then `NCCOc1cc(NC(=O)c2ccc3c(c2)/N=N/c2cc(-c4ccc(N5CCCCC5)cc4)ccc2CC3)nc2ccccc12`, with 760 ± 130 nM.
Take `NCCOc1cc(NC(=O)c2ccc3c(c2)/N=N\c2cc(C4=CCNCC4)ccc2CC3)nc2ccccc12`: the binding result is given as “weak” in assay [1] (dark, slight shift at 30 µM) and “no” in assay [2] (dark). For the same molecule, the DC50 in assay [3] (dark) was determined as 12460 ± 650 nM. In assay [3] (dark, b14 prints error as 0.65), the “apparent Kd” value is 4970 ± 260 nM.

Values taken from publication PMC12141046 (2025).
